Measurements reported in patent publication US9140688B2, “Sperm staining and sorting methods” (INGURAN, LLC, priority 2011, dated 2015).
Values joined by “and” are separate entries in the source; they are usually repeats but may differ in a detail not shown here. Equal entries are not always repeated. Where two headings read alike, the source gives them in different places.

Tests used:
[1] = system: membrane compromised bovine sperm stained with Hoechst 33342; assay: Dead quenching: dead gate intensity divided by live gate intensity, flow cytometry of stained bovine sperm; assay type: cell-based; conditions: Ex 10; Y6 25 μM
Description: FIG. 4 illustrates an example bivariate plot and univariate histogram of the parameters measured during sex selection by a FACS on a flow cytometer. […] Without a dead quenching dye, both populations of sperm would overlap to a large extent, with unpredictable variations in the dead sperm.
The entire ejaculate of sperm was suspended in first staining buffer, specifically a 7.4 pH TALP described in TABLE 1, to a concentration of 160×10^6 sperm per mL (determined on nucleocounter) and divided into three aliquots of about 20 mL into 50 mL Falcon tubes and pre-warmed for 10 minutes at 34° C. The DNA selective fluorescent dye, Hoechst 33342, was added and samples were held at 34° C. for 60 minutes. 3 different Hoechst 33342 Stain Levels were used=12 μL, 14 μL and 16 μL per 2 mL (effective concentrations of 48 μM, 56 μM, 64 μM).
Preparation of the second buffer including the dead quenching dye—A 2 L bag of TALP, described in TABLE 1, was adjusted to pH 5.60 using HCl and then sterile filtered. […] For each of the four dyes tested (R40—red food dye No. 40, Y5—yellow food dye No. 5, Y6—yellow food dye No. 6 and PR—phenol red), an appropriate number of milligrams of each powder was placed in a Erlenmeyer Flask and then an exact amount of TALP pH 5.60 was added to create a […] concentration of the dye. The result was a working TALP stock for each dye with a 100% (125 μM) relative amount of dye 50% relative (62.5 μM) and 20% relative (25 μM) solutions were made by dilution of 100% by TALP pH 5.60.
After this “bulk” staining for 60 minutes, 1 mL aliquots of stained sperm were combined with 1 mL aliquots of the second buffer including the dead quenching dyes. Samples sat for approximately 30 minutes at room temperature before being analyzed on a MoFlo SX (Beckman Coulter, USA) sperm sorting flow cytometer. Event rates were held as close to 13,000 as possible at the point of data acquisition.
The total number of individual treatments was 42 tubes, each containing 2 mL of stained sample. The alignment of the sorter was established using nuclei and confirmed with live sample from the 50% Red 40 series. Once good alignment was established, each tube was placed on the sorter long enough to establish a stabile dead gate population (about 30 seconds) and then a screenshot was taken and saved as a .jpeg image. This approach of rapidly documenting each sample is used to assure the most consistent alignment between all samples. Realignment of sorter will not cause differences in the intensities of live and dead gate populations but will cause differences in split quality.
FIG. 4 illustrates an example histogram. The ratio of dead gate intensity divided by live gate intensity is created by dividing the distance “A” by the distance “B” shown as a percentage. Lower values mean higher levels of quenching. The ratio of peak height divided by valley height is created by dividing the distance “C” by the distance “D”. A value of 1.00 means “no split” while higher values mean “better splits”. […]

[2] = system: X- and Y-chromosome bearing bovine sperm stained with Hoechst 33342; assay: Split quality: height of peak divided by height of valley (PV), flow cytometry of stained bovine sperm; assay type: cell-based; conditions: for split enhancing effect compared to control, in words / peak to valley ratio, average 8 bulls: Ex 10; for split enhancing effect compared to control, in words: 15, 45, 125 μM, averaged over 8 bulls; for peak to valley ratio, average 8 bulls: Hoechst 64 μM; for PV: Ex 9, Bull 3, Hoechst 60 μM
[3] = cited from earlier work; for (local) maximum absorption wavelength, as believed: phenol red in the red molecular form; for Expected Absorption Maxima: solvent water
[4] = split enhancing dye 15 μM, 30 Min incubation, Y6 25 μM in second buffer
[5] = split enhancing dye 15 μM, 45 Min, Y6 25 μM
[6] = split enhancing dye 15 μM, 60 Min, Y6 25 μM
[7] = split enhancing dye 15 μM, 75 Min, Y6 25 μM
[8] = split enhancing dye 45 μM, 30 Min, Y6 25 μM
[9] = split enhancing dye 45 μM, 45 Min, Y6 25 μM
[10] = split enhancing dye 45 μM, 60 Min, Y6 25 μM
[11] = split enhancing dye 45 μM, 75 Min, Y6 25 μM
[12] = split enhancing dye 125 μM, 30 Min, Y6 25 μM
[13] = split enhancing dye 125 μM, 45 Min, Y6 25 μM
[14] = split enhancing dye 125 μM, 60 Min, Y6 25 μM
[15] = split enhancing dye 125 μM, 75 Min, Y6 25 μM
[16] = shorter-wavelength local maximum

Row | SMILES | dead quenching capacity of split enhancing dye in combination with yellow food dye No. 6 (FIG. 8) [1] | split enhancing effect compared to control, in words [2] | peak to valley ratio, average 8 bulls [2, 4] | peak to valley ratio, average 8 bulls [2, 5] | peak to valley ratio, average 8 bulls [2, 6] | peak to valley ratio, average 8 bulls [2, 7] | peak to valley ratio, average 8 bulls [2, 8] | peak to valley ratio, average 8 bulls [2, 9] | peak to valley ratio, average 8 bulls [2, 10] | peak to valley ratio, average 8 bulls [2, 11] | peak to valley ratio, average 8 bulls [2, 12] | peak to valley ratio, average 8 bulls [2, 13] | peak to valley ratio, average 8 bulls [2, 14] | peak to valley ratio, average 8 bulls [2, 15] | Expected Absorption Maxima [3, 16] | further results
1 | Cc1c(C(=O)O)c(O)cc2c1C(=O)c1c(O)c(C3O[C@H](CO)[C@@H](O)[C@H](O)[C@H]3O)c(O)c(O)c1C2=O (stereo in doubt) [Red 4, carmine] | significant increase in quenching the dead subpopulation | distinct improvements at all concentrations and at all times | 1.09 | 1.44 | 1.79 | 1.91 | 1.18 | 1.50 | 1.76 | 1.94 | 1.13 | 1.45 | 1.81 | 1.95 |  | (local) maximum absorption wavelength, as believed ([3]; listed as red food dye No. 4): 520 nm and 555 nm; Expected Absorption Maxima ([3]; listed as Red 4 (natural), longer-wavelength local maximum): 555 nm; Expected Absorption Maxima ([3]; listed as Red 4 (natural), shorter-wavelength local maximum): 520 nm
2 | O=S(=O)([O-])c1ccc2c(N=Nc3ccc(S(=O)(=O)[O-])c4ccccc34)c(O)c(S(=O)(=O)[O-])cc2c1.[Na+].[Na+].[Na+] [Red 2] | strong dead quenching capacity | did not provide a split enhancing, or noise reducing effect | 1.06 | 1.15 | 1.54 | 1.73 | 1.00 | 1.05 | 1.12 | 1.38 | 1.00 | 1.00 | 1.00 | 1.00 | 520 nm | 
3 | CCN(Cc1cccc(S(=O)(=O)[O-])c1)c1ccc(C(=C2C=CC(=[N+](CC)Cc3cccc(S(=O)(=O)[O-])c3)C=C2)c2ccccc2S(=O)(=O)[O-])cc1.[Na+].[Na+] [Blue 1] |  |  |  |  |  |  |  |  |  |  |  |  |  |  | 627 nm | 
4 | CCN(Cc1cccc(S(=O)(=O)[O-])c1)c1ccc(C(=C2C=CC(=[N+](CC)Cc3cccc(S(=O)(=O)[O-])c3)C=C2)c2ccc(O)cc2S(=O)(=O)[O-])cc1.[Na+].[Na+] [Green 3] |  |  |  |  |  |  |  |  |  |  |  |  |  |  | 625 nm | 
5 | O=C(O)c1ccccc1-c1c2cc(I)c(=O)c(I)c-2oc2c(I)c(O)c(I)cc12 [Red 3, 2-(6-Hydroxy-2,4,5,7-tetraiodo-3-oxo-xanthen-9-yl)benzoic acid] |  |  | 1.05 | 1.43 | 1.78 | 1.79 | 1.05 | 1.36 | 1.58 | 1.60 | 1.00 | 1.02 | 1.10 | 1.32 | 530 nm | PV ([2]; R3 25 μM with Y6 50 μM, first Y6 series): 1.45; PV ([2]; R3 50 μM with R40 50 μM): 1.63; PV ([2]; R3 50 μM with Y6 50 μM, second Y6 series): 1.33; PV ([2]; R3 100 μM with R40 50 μM): 1.65; PV ([2]; R3 100 μM with Y6 50 μM, first Y6 series): 1.38; PV ([2]; R3 100 μM with Y6 50 μM, second Y6 series): 1.55; PV ([2]; R3 150 μM with Y6 50 μM, first Y6 series): 1.41; PV ([2]; R3 200 μM with R40 50 μM): 1.78; PV ([2]; R3 300 μM with R40 50 μM): 2.15; PV ([2]; R3 300 μM with Y6 50 μM, first Y6 series): 1.66; PV ([2]; R3 300 μM with Y6 50 μM, second Y6 series): 1.68; PV ([2]; R3 600 μM with Y6 50 μM, first Y6 series): 1.31; PV ([2]; R3 600 μM with Y6 50 μM, second Y6 series): 1.42; (local) maximum absorption wavelength, as believed [3]: about 530 nm
6 | O=C1/C(=C2\Nc3ccc(S(=O)(=O)[O-])cc3C2=O)Nc2ccc(S(=O)(=O)[O-])cc21.[Na+].[Na+] [Blue 2] |  |  |  |  |  |  |  |  |  |  |  |  |  |  | 610 nm | 
